Assay results: patent US20150272939A1, “Identification of Small Molecule Inhibitors of Jumonji AT-Rich Interactive Domain 1A (JARID1A) and 1B (JARID1B) Histone Demethylase” (Yale University, priority 2012, published 2015)

What was measured:
JARID1B = target: T1, JARID1B (Homo sapiens, UniProt Q9UGL1); assay: FLAG-JARID1B histone demethylase assay with AlphaScreen detection (HTS and dose response); assay type: biochemical; details: for Assay − Artifact Signal (percent): assay signal minus artifact signal; for inhibition at 20 µM: high-throughput screen, compound 20 μM, standard demethylase conditions (10 μM α-KG, 50 μM Fe (II)), read-out: Inhibitory effect (percent); for Assay Signal (percent) / Validation result of HTS active: effect of the compound in the JARID1B AlphaScreen demethylase assay: validation of HTS actives; for Assay Signal (percent): effect of compound in JARID1B AlphaScreen assay; for Validation result of HTS active: effect of the compound in the JARID1B AlphaScreen demethylase assay: total signal before subtraction of artifact signal;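 as to Assay Signal (percent): compound tested at 20 µM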;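 as to Assay − Artifact Signal (percent): compound tested at 20 µM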;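 as to all read-outs here: FLAG-tagged JARID1B at 4 nM acting on a biotinylated H3K4me3 peptide, demethylation read by AlphaScreen luminescence, with hits checked against bio-H3K4me2 without enzyme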
T1 construct: The FLAG tagged full length JARID1B enzyme was expressed in Sf21 insect cells using FLAG-JARID1B baculoviruses; FLAG (N); made in house; host or cells: Sf21 insect cells (baculovirus)
T1 sequence (Q9UGL1 whole entry): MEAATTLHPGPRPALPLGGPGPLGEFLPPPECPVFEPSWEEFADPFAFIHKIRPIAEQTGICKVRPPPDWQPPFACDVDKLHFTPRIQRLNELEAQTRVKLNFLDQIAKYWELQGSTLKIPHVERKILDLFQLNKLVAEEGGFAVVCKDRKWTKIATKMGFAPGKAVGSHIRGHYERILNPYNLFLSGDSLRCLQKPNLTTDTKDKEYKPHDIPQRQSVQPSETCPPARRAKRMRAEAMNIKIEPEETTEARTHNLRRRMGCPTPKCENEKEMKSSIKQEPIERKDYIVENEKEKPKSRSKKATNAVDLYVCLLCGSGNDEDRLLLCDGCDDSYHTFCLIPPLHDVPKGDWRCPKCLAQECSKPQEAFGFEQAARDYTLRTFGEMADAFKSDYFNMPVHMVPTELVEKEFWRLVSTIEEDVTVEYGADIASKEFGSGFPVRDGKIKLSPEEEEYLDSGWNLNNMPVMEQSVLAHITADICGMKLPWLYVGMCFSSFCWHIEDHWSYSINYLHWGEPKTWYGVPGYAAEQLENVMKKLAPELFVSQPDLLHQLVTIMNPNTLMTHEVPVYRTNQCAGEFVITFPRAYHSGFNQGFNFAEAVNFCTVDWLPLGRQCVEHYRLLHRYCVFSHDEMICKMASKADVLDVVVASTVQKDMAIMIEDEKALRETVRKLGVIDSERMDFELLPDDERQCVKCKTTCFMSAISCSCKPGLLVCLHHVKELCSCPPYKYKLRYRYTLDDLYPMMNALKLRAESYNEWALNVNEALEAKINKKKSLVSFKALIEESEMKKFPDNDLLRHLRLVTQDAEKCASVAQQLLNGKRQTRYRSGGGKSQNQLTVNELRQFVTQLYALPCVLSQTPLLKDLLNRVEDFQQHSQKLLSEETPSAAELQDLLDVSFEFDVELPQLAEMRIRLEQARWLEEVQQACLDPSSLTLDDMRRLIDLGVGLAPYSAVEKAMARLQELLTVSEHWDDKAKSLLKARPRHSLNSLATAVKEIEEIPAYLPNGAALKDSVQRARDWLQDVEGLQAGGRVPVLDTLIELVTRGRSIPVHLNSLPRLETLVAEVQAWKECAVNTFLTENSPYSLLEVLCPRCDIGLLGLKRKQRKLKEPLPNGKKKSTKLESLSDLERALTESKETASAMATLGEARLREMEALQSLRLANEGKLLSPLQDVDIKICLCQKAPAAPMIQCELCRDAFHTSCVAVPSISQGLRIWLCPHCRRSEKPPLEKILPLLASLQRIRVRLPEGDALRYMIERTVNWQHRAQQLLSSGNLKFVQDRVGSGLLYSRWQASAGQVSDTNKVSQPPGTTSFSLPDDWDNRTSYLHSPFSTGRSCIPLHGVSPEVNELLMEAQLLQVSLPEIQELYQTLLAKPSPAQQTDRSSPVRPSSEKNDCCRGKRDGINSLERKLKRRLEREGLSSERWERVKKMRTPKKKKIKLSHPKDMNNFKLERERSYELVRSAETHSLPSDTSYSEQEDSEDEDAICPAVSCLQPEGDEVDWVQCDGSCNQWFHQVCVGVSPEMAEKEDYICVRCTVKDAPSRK

[1] = AlphaScreen counterscreen against bio-H3K4me2 peptide in the absence of enzyme (artifact signal); details: for Artifact Signal (percent): effect of the compound when incubated with bio-H3K4me2 peptide (counterscreen, no enzyme); for Artifact signal: effect of the compound when it is incubated with bio-H3K4me2 peptide: counterscreen, no enzyme;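 as to all read-outs here: counterscreen run without enzyme against bio-H3K4me2 peptide to remove false positive hits from the JARID1 demethylase AlphaScreen screen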

Compound | Assay − Artifact Signal (percent) (JARID1B) | inhibition at 20 µM (JARID1B) | Assay Signal (percent) (JARID1B) | Artifact Signal (percent) [1] | Validation result of HTS active: effect of the compound in the JARID1B AlphaScreen demethylase assay (JARID1B) | Artifact signal: effect of the compound when it is incubated with bio-H3K4me2 peptide [1]
S=C(Nc1ccc2c(c1)OCO2)Nn1cnnc1 [YU147019] | 17.76% | 37.3% | 16.46% | −1.29% | – | –
Cc1ccccc1C(=O)NCc1nnc(S)n1C [YU147024] | 35.27% | 31.6% | 29.44% | −5.84% | – | –
O=C(NC(=S)NCc1ccccc1)C1CCCC1 [YU147054] | 24.52% | 33.9% | 22.98% | −1.54% | – | –
N#CC(=Cc1ccncc1)c1nc2ccccc2s1 [YU147088] | 45.66% | 39.8% | 46.00% | 0.34% | – | –
Cc1nnc(S)n1NCc1ccc2c(c1)OCO2 [YU147191] | 43.11% | 31.5% | 45.05% | 1.94% | – | –
COCCCNCCOc1cc(C(C)C)ccc1C [YU147245] | 12.07% | 30.9% | 13.31% | 1.25% | – | –
CCOc1cc(CN)cc(Cl)c1OCC.Cl [YU147266] | 69.10% | 68.6% | 69.21% | 0.11% | – | –
CCSc1nnc(-c2cc(OC)cc(OC)c2)o1 [YU147278] | 15.14% | 32.8% | 9.43% | −5.71% | – | –
Cn1c(S)nnc1CSCc1ccc(F)cc1 [YU147498] | 23.24% | 31.1% | 19.36% | −3.87% | – | –
Cc1cc(OCc2nc3ccccc3s2)ccc1N [YU147615] | 13.88% | 40.4% | 14.43% | 0.54% | – | –
CNCCCOc1ccc(OCc2ccccc2)cc1 [YU147640] | – | 39.1% | – | – | 5.15 | −2.82
C=CCn1c(Cc2nc3ccccc3[nH]2)n[nH]c1=S [YU147658] | 28.18% | 32.8% | 27.63% | −0.55% | – | –
COc1ccc2nc(NCc3ccncc3)sc2c1 [YU147704] | 54.05% | 70.4% | 55.47% | 1.42% | – | –
Cc1nc(NC(=O)c2cc3ccccc3o2)sc1C [YU147750] | – | 86.4% | – | – | −2.53 | −6.59
O=S(=O)(NN1CCOCC1)c1ccc(Cl)cc1 [YU148050] | 17.03% | 36.1% | 20.47% | 3.44% | – | –
COC(=O)c1cccc(OCC(O)Cn2ccnc2)c1 (centres unmarked) [YU148087] | 8.48% | 51.4% | 15.48% | 7.00% | – | –
C=CCn1c(-c2cccc(OC)c2OC)n[nH]c1=S [YU148159] | 35.74% | 30.4% | 38.72% | 2.98% | – | –
O=C(NNC(=S)NCC1CCCO1)c1ccccn1 (centres unmarked) [YU148374] | 54.50% | 84.8% | 77.28% | 22.77% | – | –
COc1ccc(Cl)cc1NC(=S)Nn1cnnc1 [YU148611] | 17.82% | 34.6% | 15.61% | −2.20% | – | –

Compound | Assay − Artifact Signal (percent) (JARID1B) | inhibition at 20 µM (JARID1B) | Assay Signal (percent) (JARID1B) | Artifact Signal (percent) [1] | Validation result of HTS active: effect of the compound in the JARID1B AlphaScreen demethylase assay (JARID1B) | Artifact signal: effect of the compound when it is incubated with bio-H3K4me2 peptide [1]
O=C(NCCc1ccc(F)cc1)C(Cl)(Cl)Cl [YU148680] | – | 63.9% | – | – | −2.95 | −10.90
Cc1ccc(C(=O)Nc2nnc(-c3ccncc3)s2)o1 [YU148889] | 9.49% | 44.6% | 16.16% | 6.66% | – | –
S=C(Nc1cccc(Cl)c1Cl)Nn1cnnc1 [YU149002] | 12.28% | 37.9% | 15.58% | 3.30% | – | –
C=CCn1c(S)nnc1CNC(=O)c1cccc(C)c1 [YU149014] | 49.04% | 35.7% | 47.61% | −1.43% | – | –
Cn1cnnc1SCC(=O)c1ccc(C(C)(C)C)cc1 [YU149180] | 52.70% | 32% | 50.21% | −2.49% | – | –
Cc1cccc(C(=O)NNC(=S)NC(=O)CC(C)C)c1 [YU149514] | – | 48.4% | – | – | −2.24 | −8.22
COC(=O)NC1(C(F)(F)F)C(=O)NC(C)=C1C(=O)OC (centres unmarked) [YU149831] | 11.45% | 34% | 13.59% | 2.14% | – | –
c1cc2c(cc1CNc1ccc(N3CCCC3)cc1)OCO2 [YU149834] | – | 48.1% | – | – | 28.52 | 27.95
CCOc1cccc(CNc2ccc(N3CCCC3)cc2)c1 [YU149839] | 13.21% | 47.5% | 31.65% | 18.44% | – | –
Cc1cc(C(=O)Nc2cccc(Cn3cccn3)c2)cs1 [YU149922] | – | 56.7% | – | – | −6.24 | −8.78
Cc1cccc(-n2c(=O)c(O)nc3cc([N+](=O)[O-])ccc32)c1 [YU149941] | – | 51.1% | – | – | −12.32 | −16.01
CC(=O)Nc1ccccc1NC(=O)c1ccc2c(c1)OCO2 [YU149951] | 8.46% | 84.7% | 6.61% | −1.85% | – | –
CC(NC(=S)Nc1ccc2c(c1)OCO2)c1ccncc1 (centres unmarked) [YU150371] | 8.09% | 31.8% | 6.16% | −1.93% | – | –
Cc1ccc(NC(=O)C2OCCc3ccccc32)cc1Cl (centres unmarked) [YU150403] | – | 97.5% | – | – | −3.10 | −6.36
CC1(C)C(=O)C2(CCCCC2)C(=O)OC1c1ccc(O)cc1 (centres unmarked) [YU150447] | – | 34.3% | – | – | 4.56 | 0.80
O=c1c2c(-c3ccc(Cl)cc3)csc2nc2n1CCC2 [YU150472] | – | 32.1% | – | – | 4.75 | −2.52
c1ccc(CCc2nn3c(-c4ccncc4)nnc3s2)cc1 [YU150981] | 48.70% | 71.2% | 52.35% | 3.65% | – | –
CCCc1ccc(OC(=O)c2cc3ccccc3oc2=O)cc1 [YU151027] | – | 37% | – | – | 2.93 | −4.49
